Where “and” joins values, the source holds several entries; their conditions need not be identical. Equal values may be shown once.
Columns and labels:
[1] = test system: serum testosterone; test: Example 6: serum testosterone (CLIA) in men with non-metastatic prostate cancer, Parts A and B; format: in vivo, human
[2] = test system: serum PSA; test: Example 6: serum PSA (CLEIA); format: in vivo, human
Description: This study consisted of two parts: Part A, a dose-rising phase, and Part B, an expansion phase. Whether or not the study would proceed to the next cohort or to Part B was determined through assessment of tolerability at the present dose, based on the incidence of adverse effects during the evaluation period.
Subjects in Cohort 1 received a load dose of 320 mg and a maintenance dose of 80 mg; subjects in Cohort 2 received a load dose of 320 mg and a maintenance dose of 120 mg; subjects in Cohort 3 received a load dose of 320 mg and a maintenance dose of 160 mg; and subjects in Cohort 4 received a load dose of 360 mg and a maintenance dose of 120 mg.
In addition to the safety assessments, efficacy assessments were also performed according to the study schedule, and the Compound 1 formulation was administered until each subject met the discontinuation criteria.

[3] = test system: serum testosterone; test: Example 8: serum testosterone in men with advanced prostate cancer, versus leuprolide acetate; format: in vivo, human
Excerpt: Eligible men were aged ≥18 years with a histologically confirmed diagnosis of prostate adenocarcinoma, and were candidates for ADT for the management of hormone-sensitive prostate cancer with one of the following clinical disease states: advanced localized disease not suitable for primary surgical or radiation therapy; evidence of PSA biochemical or clinical relapse following primary surgery or radiation therapy of curative intent; or newly diagnosed metastatic disease that was asymptomatic and without visceral involvement. […] Patients with advanced, localized MON1 or M1 disease with clinically significant symptoms or visceral involvement, who required immediate GnRH therapy, chemotherapy, or radiation therapy were not eligible for the trial.
Serum testosterone levels were measured at each visit.

[4] = test system: FSH; test: Example 9: FSH; format: in vivo, human
Description: Eligible male patients were aged ≥18 years with a histologically confirmed diagnosis of localized, intermediate-risk prostate cancer, for whom 6-month neoadjuvant and adjuvant androgen deprivation therapy (ADT) to external beam radiation therapy (EBRT) was indicated. The criteria for establishing intermediate-risk prostate cancer included the presence of one of the following, without any high-risk feature: T2b-T2c disease, Gleason score 7, or prostate-specific antigen (PSA) 10-20 ng/mL. Additional inclusion criteria included: EBRT scheduled to begin ≥12 weeks after baseline visit; screening serum testosterone >150 ng/dL (5.2 nmol/L); screening PSA concentration >2 ng/ml; body mass index ≥18.0 at screening or baseline (i.e., the subject's BMI prior to treatment commencing); Eastern Cooperative Oncology Group performance status of 0 or 1 at screening. Based on investigator discretion and clinical assessment of the patient's overall medical and disease status, participation was allowed for older patients with high-risk disease (e.g., based on Gleason score or tumor status) who were deemed likely to benefit from 6 months of neoadjuvant/adjuvant ADT. Most patients had intermediate-risk disease. However, a few patients, based on Gleason score or tumor, node, and metastasis staging system, were technically of higher than intermediate risk.
Both treatment arms received treatment for 24 weeks. Patients remained on treatment for at least 12 weeks before the start of external beam radiation treatment (EBRT), which was initiated for most patients between Week 13, Day 1 and Week 15, Day 1. EBRT began no later than day 1, week 17.
Patients were evaluated every 4 weeks during the treatment period (including day 1, week 25), at end of treatment (defined as week 29), during follow-up (week 33), and at end of study (EOS).
Samples for testosterone, luteinizing hormone (LH), FSH, and PSA concentrations were taken at screening, on day 1 of the first week (additionally days 2 and 4 for testosterone and LH), and on day 1 of weeks 2, 3, 5, 9, 13, 17, 21, 25, 29, 33, and 37 thereafter. […] Suppression of FSH was less profound than that of LH, but consistent with the literature, and was greater than that observed with GnRH agonists.

[5] = FIG. 23
Excerpt: Table printed on a drawing sheet, FIG. 23
First reader's note: The rows 'Plasma' and 'Urine' are section heads (matrix); the sheet explains neither the footnote marks a and b nor the values in brackets.

[6] = Part A Day 28, Cohort 1 (320 mg load, 80 mg QD)
[7] = Part A Day 28, Cohort 2 (320 mg load, 120 mg QD)
[8] = Part A Day 28, Cohort 3 (320 mg load, 160 mg QD)
[9] = Part B Week 13 Day 1 (LOCF), 120 mg group
[10] = Compound 1 80 or 120 mg QD after 320 mg load
[11] = Compound 1 Total, End of Treatment
[12] = Compound 1 Total, Week 49, Day 1

## CONC(=O)Nc1ccc(-c2sc3c(c2CN(C)C)c(=O)n(-c2ccc(OC)nn2)c(=O)n3Cc2c(F)cccc2F)cc1 [Compound 1, N-(4-(1-(2,6-difluorobenzyl)-5-((dimethylamino)methyl)-3-(6-methoxy-3-pyridazinyl)-2,4-dioxo-1,2,3,4-tetrahydrothieno[2,3-d]pyrimidin-6-yl)phenyl)-N′-methoxyurea]
[1]; Part A, load dose then maintenance 80, 120 or 160 mg QD
  time for mean serum testosterone to fall below medical castration levels (below 50 ng/dL): up to 3 days
[1]; Part A, maintained up to 3 days after last dose on Day 28
  when serum testosterone achieved medical castration levels in all subjects: between Day 2 and Day 14
[1]; Part B, 320 mg load then 80 or 120 mg QD
  time for mean serum testosterone to be suppressed below medical castration levels (below 50 ng/dL): ≤ 4 days
[1]; Part B, maintained throughout evaluation period
  when serum testosterone reached medical castration levels in all subjects: between Day 2 and Week 3
[2]; [6]
  mean percentage change from baseline in serum PSA: −76.37%
  median percentage change from baseline in serum PSA: −77.50%
[2]; [7]
  mean percentage change from baseline in serum PSA: −60.10%
  median percentage change from baseline in serum PSA: −72.30%
[2]; [8]
  mean percentage change from baseline in serum PSA: −32.10%
  median percentage change from baseline in serum PSA: −50.50%
[2]; Part B Week 13 Day 1 (LOCF), 80 mg group
  median percentage change from baseline in serum PSA: −97.20%
[2]; [9]
  mean percentage change from baseline in serum PSA: −93.11%
  median percentage change from baseline in serum PSA: −95.80%
[3]; 80 mg QD, Baseline
  Testosterone Mean (Std Dev): 13.755 (4,7256) nmol/L
  Testosterone Median: 12.700 nmol/L
[3]; 80 mg QD, End of Study
  Testosterone Mean (Std Dev): 6.933 (6.4298) nmol/L
  Testosterone Median: 5.340 nmol/L
[3]; 80 mg QD, End of Treatment
  Testosterone Mean (Std Dev): 7.211 (9.2178) nmol/L
  Testosterone Median: 3.125 nmol/L
[3]; 80 mg QD, Follow-Up
  Testosterone Mean (Std Dev): 11.004 (5.9971) nmol/L
  Testosterone Median: 13.185 nmol/L
[3]; 80 mg QD, Week 49, Day 1
  Testosterone Median: 0.380 nmol/L
[3]; 120 mg QD, Baseline
  Testosterone Median: 14.350 nmol/L
[3]; 120 mg QD, EOS (12 weeks after stopping)
  Median testosterone: 322.8 ng/dL
[3]; 120 mg QD, EOT (4 weeks after end of treatment)
  Median testosterone: 72.9 ng/dL
[3]; 120 mg QD, End of Study
  Testosterone Mean (Std Dev): 9.565 (7.6479) nmol/L
  Testosterone Median: 11.210 nmol/L
[3]; 120 mg QD, End of Treatment
  Testosterone Mean (Std Dev): 3.592 (3.7809) nmol/L
  Testosterone Median: 2.530 nmol/L
[3]; 120 mg QD, Follow-Up
  Testosterone Median: 11.450 nmol/L
[3]; 120 mg QD, Follow-up visit (8 weeks after stopping)
  Median testosterone: 329.8 ng/dL
[3]; 120 mg QD, Week 49, Day 1
  Testosterone Mean (Std Dev): 0.443 (0.2745) nmol/L
  Testosterone Median: 0.365 nmol/L
[3]; 4 weeks after the end of treatment
  serum testosterone after stopping treatment: > 50 ng/dL
[3]; [10]
  visit by which average serum testosterone decreased below medical castration threshold of 50 ng/dL: Day 4
  visit by which average serum testosterone decreased below profound castration threshold of 20 ng/dL: Week 5 Day 1
[3]; Compound 1 Total, Baseline
  Testosterone Mean (Std Dev): 14.4 nmol/L
  Testosterone Median: 13.600 nmol/L
[3]; Compound 1 Total, End of Study
  Testosterone Mean (Std Dev): 8.249 (7.0702) nmol/L
  Testosterone Median: 7.425 nmol/L
[3]; [11]
  Testosterone Mean (Std Dev): 5.039 (6.6432) nmol/L
  Testosterone Median: 2.530 nmol/L
[3]; Compound 1 Total, Follow-Up
  Testosterone Mean (Std Dev): 12.094 (5.9829) nmol/L
  Testosterone Median: 11.970 nmol/L
[3]; [12]
  Testosterone Mean (Std Dev): 0.487 (0.3867) nmol/L
  Testosterone Median: 0.380 nmol/L
[3]; Compound 1 groups, weeks 5-49
  median serum testosterone: < 20 ng/dL
[3]; in vivo
  testosterone surge or tumor flare after treatment initiation: No serum testosterone surge or resultant tumor flare occurred
[4]; Baseline
  FSH level before administration: 11.826 IU/L
[4]; Week 2, Day 1
  FSH level: 2.363 IU/L
[4]; Week 25, Day 1
  mean FSH level: 1.475 IU/L
[5]
  CLr (L/h): 6.92 (29.5) L/h and 5.51 (26.7) L/h and 6.42 (25.0) L/h and 7.66 (17.4) L/h and 7.43 (16.2) L/h
  Fe (%): 1.44 (31.8) % and 1.35 (40.0) % and 1.76 (38.6) % and 1.89 (20.2) % and 2.88 (45.6) %
  t1/2(h): 50.6 (20.2) h and 49.4 (30.6) h and 36.5 (17.4) h
